Results published in ChEMBL document CHEMBL1201862, “PubChem BioAssay data set” (2004).
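These data come from cells grown in 96-well plates and exposed to compound for 48 hours at five concentrations. Here, GI50 denotes the concentration required for 50% inhibition of growth.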 Calls of active or inactive are those of the source. Cut-off read from the data, not from the text of the source: active = GI50 up to about 1.1 µM and inactive = higher. Non-standard residues stand in square brackets, D forms with d. Residues, ends and D or L forms follow the SMILES beside them. *: point of attachment. Bn2Val = CC(C)[C@@H](C(=O)*)N(Cc1ccccc1)Cc1ccccc1; NH(4-Cl-benzyl) = Clc1ccc(CN*)cc1; NMeV = CN[C@H](C(=O)O)C(C)C; dNMeA = CN[C@H](C)C(=O)O

How the values were obtained:
Assay in all cases: NCI anticancer screen, dose series, 48 h
[1] = system: LOX IMVI
[2] = system: OVCAR-4
[3] = system: SN12C
[4] = system: NCI-H226
[5] = system: HOP-92
[6] = system: SF-295
[7] = system: CCRF-CEM
[8] = system: SF-268
[9] = system: UACC-257
[10] = system: MOLT-4
[11] = system: EKVX
[12] = system: NCI-H23
[13] = system: SNB-19
[14] = system: RXF 393
[15] = system: SNB-75
[16] = system: MDA-N
[17] = system: A498
[18] = system: OVCAR-3
[19] = system: M14
[20] = system: K562

SMILES | GI50 [1] | GI50 [2] | GI50 [3] | GI50 [4] | GI50 [5] | GI50 [6] | GI50 [7] | GI50 [8] | GI50 [9] | GI50 [10] | GI50 [11] | GI50 [12] | GI50 [13] | GI50 [14] | GI50 [15] | GI50 [16] | GI50 [17] | GI50 [18] | GI50 [19] | GI50 [20]
COC(=O)c1cn(CCCC(=O)O)nn1 | > 100 µM (inactive) | > 100 µM (inactive) | > 100 µM (inactive) | > 100 µM (inactive) | > 100 µM (inactive) | > 100 µM (inactive) | > 100 µM (inactive) | > 100 µM (inactive) | > 100 µM (inactive) | > 100 µM (inactive) | > 100 µM (inactive) | > 100 µM (inactive) | > 100 µM (inactive) | > 100 µM (inactive) | > 100 µM (inactive) | > 100 µM (inactive) | – | – | – | –
COc1cc(C2=C(C#N)C(N)OC3=C2COc2ccccc23)cc(OC)c1OC (stereo not drawn) | 35.5 µM (inactive) | 5.22 µM (inactive) | 16.1 µM (inactive) | 30.4 µM (inactive) | 40.8 µM (inactive) | – | 0.938 µM (active) | 14.9 µM (inactive) | 31.3 µM (inactive) | 3.16 µM (inactive) | 16.2 µM (inactive) | 33.9 µM (inactive) | 9.29 µM (inactive) | – | – | > 100 µM (inactive) | 24.5 µM (inactive) | 14.2 µM (inactive) | 42 µM (inactive) | 78 µM (inactive)
C=C(Br)CNCC(=C)Br | > 100 µM (inactive) | > 100 µM (inactive) | > 100 µM (inactive) | > 100 µM (inactive) | – | > 100 µM (inactive) | 76.2 µM (inactive) | > 100 µM (inactive) | 29 µM (inactive) | 48.6 µM (inactive) | > 100 µM (inactive) | > 100 µM (inactive) | > 100 µM (inactive) | > 100 µM (inactive) | 68.5 µM (inactive) | > 100 µM (inactive) | > 100 µM (inactive) | 30.8 µM (inactive) | > 100 µM (inactive) | 38 µM (inactive)
CCOC(=O)C12OC(OCC)(CC1(OCC)OCC)C1(CC1)C2=O (stereo not drawn) | > 100 µM (inactive) | > 100 µM (inactive) | > 100 µM (inactive) | > 100 µM (inactive) | > 100 µM (inactive) | > 100 µM (inactive) | > 100 µM (inactive) | > 100 µM (inactive) | > 100 µM (inactive) | > 100 µM (inactive) | > 100 µM (inactive) | > 100 µM (inactive) | > 100 µM (inactive) | – | > 100 µM (inactive) | > 100 µM (inactive) | > 100 µM (inactive) | > 100 µM (inactive) | > 100 µM (inactive) | > 100 µM (inactive)
CO[C@]12CC(=O)C3(C(C[C@H]4CC5CC=C6C[C@@H](OC(C)=O)CC[C@]6(OC(C)=O)C5C[C@@]43C)C1)C1C[C@H]3[C@@H]4CC=C5C[C@@H](OC(C)=O)CC[C@]5(OC(C)=O)[C@H]4CC[C@]3(C)C12 (stereo partly drawn) | 18.9 µM (inactive) | 4.5 µM (inactive) | 14.6 µM (inactive) | – | 18.7 µM (inactive) | 13.9 µM (inactive) | 74 µM (inactive) | 56.9 µM (inactive) | 23.6 µM (inactive) | 5.58 µM (inactive) | 21.4 µM (inactive) | 15.6 µM (inactive) | 13.9 µM (inactive) | – | 36.7 µM (inactive) | 13.1 µM (inactive) | 27.2 µM (inactive) | 19.7 µM (inactive) | 17.5 µM (inactive) | 8.85 µM (inactive)
COc1cccc2c1OCC1Cc3ccccc3OC21 (stereo not drawn) | 33.3 µM (inactive) | – | 27.7 µM (inactive) | > 100 µM (inactive) | – | 36.6 µM (inactive) | 54.1 µM (inactive) | 60.4 µM (inactive) | 24.4 µM (inactive) | 28.8 µM (inactive) | 73.3 µM (inactive) | 42.4 µM (inactive) | – | – | – | 25.4 µM (inactive) | 99.1 µM (inactive) | 26.5 µM (inactive) | 44 µM (inactive) | 61.1 µM (inactive)
CCCCOCCOCCOC1=CC(=O)c2c(O)ccc(O)c2C1=O | 1.86 µM (inactive) | 1.94 µM (inactive) | 1.82 µM (inactive) | 2.01 µM (inactive) | 2.9 µM (inactive) | 1.68 µM (inactive) | 2.14 µM (inactive) | 4.26 µM (inactive) | 1.58 µM (inactive) | 2.65 µM (inactive) | 5.19 µM (inactive) | 1.82 µM (inactive) | 1.79 µM (inactive) | 1.94 µM (inactive) | – | 0.167 µM (active) | – | 1.61 µM (inactive) | 1.51 µM (inactive) | 2.5 µM (inactive)
CCC(C)C(=O)OC1C(=O)OC2CC3C(C)=CC(=O)C(O)C3(C)C3C4(O)OCC23C1C(C)C4O (stereo not drawn) | < 0.01 µM (active) | 0.0314 µM (active) | 0.0632 µM (active) | < 0.016 µM (active) | 0.0208 µM (active) | < 0.0204 µM (active) | < 0.0131 µM (active) | < 0.0188 µM (active) | 0.0223 µM (active) | – | 0.264 µM (active) | < 0.0144 µM (active) | < 0.0152 µM (active) | – | < 0.0204 µM (active) | < 0.0169 µM (active) | 0.514 µM (active) | < 0.0199 µM (active) | < 0.0146 µM (active) | < 0.01 µM (active)
CCCCCCCCCCCCCCCCOc1ccc(/C=C/C2=[N+](CCCl)CCO2)cc1 | > 100 µM (inactive) | > 100 µM (inactive) | > 100 µM (inactive) | > 100 µM (inactive) | > 100 µM (inactive) | 55.8 µM (inactive) | > 100 µM (inactive) | – | > 100 µM (inactive) | > 100 µM (inactive) | > 100 µM (inactive) | – | > 100 µM (inactive) | – | > 100 µM (inactive) | > 100 µM (inactive) | 73.1 µM (inactive) | > 100 µM (inactive) | > 100 µM (inactive) | 77.3 µM (inactive)
COC(=O)C(C(=O)C(N)=O)c1csc(-n2nc(-c3ccccc3)cc2-c2ccccc2)n1 (stereo not drawn) | > 88.1 µM (inactive) | > 31.6 µM (inactive) | > 10 µM (inactive) | 20.9 µM (inactive) | > 67 µM (inactive) | > 87.9 µM (inactive) | 25.1 µM (inactive) | > 31.6 µM (inactive) | 19.8 µM (inactive) | 25.5 µM (inactive) | 13.9 µM (inactive) | > 100 µM (inactive) | 12.5 µM (inactive) | > 31.6 µM (inactive) | > 31.6 µM (inactive) | – | > 31.6 µM (inactive) | 43.2 µM (inactive) | > 31.6 µM (inactive) | 23.8 µM (inactive)
O=C1C=C(NCCc2cc(Br)c(O)c(Br)c2)C(=O)c2[nH]cnc21 | 21.5 µM (inactive) | 19.1 µM (inactive) | 26.2 µM (inactive) | 23 µM (inactive) | 29.7 µM (inactive) | 30.5 µM (inactive) | 2.28 µM (inactive) | 49 µM (inactive) | 5.6 µM (inactive) | > 10 µM (inactive) | 96.2 µM (inactive) | 10.8 µM (inactive) | 36.1 µM (inactive) | 19.5 µM (inactive) | 21.9 µM (inactive) | 18.6 µM (inactive) | – | 21.6 µM (inactive) | 24.6 µM (inactive) | 14.9 µM (inactive)
O=C1CC(n2ccnc2)c2c(Cl)sc(Cl)c21 (stereo not drawn) | 6.3 µM (inactive) | 19.5 µM (inactive) | 17.7 µM (inactive) | 31.6 µM (inactive) | – | 27.4 µM (inactive) | 4.78 µM (inactive) | 21.9 µM (inactive) | 15.5 µM (inactive) | 3.86 µM (inactive) | 19.2 µM (inactive) | 14.9 µM (inactive) | 20.3 µM (inactive) | 16.4 µM (inactive) | 20.6 µM (inactive) | 16.2 µM (inactive) | – | 15.4 µM (inactive) | 15.3 µM (inactive) | 7.89 µM (inactive)
CC(C)[C@H](NC(=O)[C@H](C(C)C)N(Cc1ccccc1)Cc1ccccc1)C(=O)N(C)[C@H](C(=O)N1CCC[C@H]1C(=O)N(C)[C@H](C)C(=O)NCc1ccc(Cl)cc1)C(C)C (Bn2Val-V[NMeV]P[dNMeA]-{NH(4-Cl-benzyl)}) | 1.85 µM (inactive) | 3.96 µM (inactive) | 2.58 µM (inactive) | 3.72 µM (inactive) | 2.84 µM (inactive) | 3.11 µM (inactive) | 2.42 µM (inactive) | 2.98 µM (inactive) | 4.78 µM (inactive) | 2.42 µM (inactive) | 2.46 µM (inactive) | 3.37 µM (inactive) | 4.24 µM (inactive) | 1.53 µM (inactive) | 3.44 µM (inactive) | 4.43 µM (inactive) | – | 2.76 µM (inactive) | 4.01 µM (inactive) | 4.04 µM (inactive)
S=C1SC(=N\c2ccccc2)/C(=N/c2ccccc2)N1c1ccc2ccccc2c1 | – | 80.7 µM (inactive) | > 100 µM (inactive) | > 100 µM (inactive) | – | > 100 µM (inactive) | > 100 µM (inactive) | – | – | – | – | > 100 µM (inactive) | > 100 µM (inactive) | 7.26 µM (inactive) | 74.8 µM (inactive) | > 100 µM (inactive) | > 100 µM (inactive) | > 100 µM (inactive) | > 100 µM (inactive) | > 100 µM (inactive)
O=C(CCN1CCCCC1)Nc1ccc2sc3ccccc3c(=O)c2n1 | 10.3 µM (inactive) | 16 µM (inactive) | 12.3 µM (inactive) | – | 0.411 µM (active) | 18.1 µM (inactive) | 7.91 µM (inactive) | 16.3 µM (inactive) | 19.7 µM (inactive) | 2.56 µM (inactive) | 20.2 µM (inactive) | > 10 µM (inactive) | 15.4 µM (inactive) | – | 10.5 µM (inactive) | 14.3 µM (inactive) | – | 15.8 µM (inactive) | 13.6 µM (inactive) | 6.38 µM (inactive)
